Reference: patent US7750184B2, “Vitamin D receptor modulators” (Eli Lilly and Company, priority 2003, dated 2010)

Experiments:
rat osteocalcin promoter = assay: OCN (osteocalcin) promoter assay; format: cell-based; conditions: RG-15 (ROS 17/2.8) cells, 48 hr treatment, luciferase reporter
Description: 3. The OCN (osteocalcin) Promoter Assay
The OCN Promoter Assay is an indicator and marker for osteoporosis. […] Preferred assay results are less than 50 nM.
(3) Materials and Method for the OCN Promoter Assay:
The activation of osteocalcin by VDR ligands was evaluated in a rat osteoblast-like cell line RG-15 (ROS 17/2.8) stably expressing rat osteocalcin promoter fused with luciferase reporter gene. […] Confluent RG-15 cells maintained in DMEM/F-12 medium (3:1) containing 5% FBS, 300 μg/ml G418 and at 37° C. under 5% CO2/95% air atmosphere were trypsinized (0.25% trypsin) and plated into white opaque 96-well cell culture plates (25000 cells/well). After 24 hr, cells (in DMEM/F-12 medium+2% FBS) were treated with various concentrations of compounds, dissolved in DMSO. The final DMSO concentration remained at 0.01% (v/v). After 48 hr treatment, the medium was removed, cells were lysed with 50 μl of lysis buffer (From Luciferase reporter assay system, Roche Diagnostics, Indianapolis, Ind.) and assayed for luciferase activity using the Luciferase Reporter Gene Assay kit from Boehringer Mannheim as per manufacturer's specifications.

[1] = Mouse hypercalcemia assay; conditions: oral gavage for 6 days, serum ionized calcium 6 hours after last dosing
Description: The Mouse Hypercalcemia Assay is a six day hypercalcemia test for toxicity and selectivity. Acceptable test results are levels greater than 300 μg/kg/day. Preferred assay results are levels greater than 1000 μg/day.
(4) Materials and Method for the Mouse Hypercalcemia Assay:
Weanling, virus—antibody-free, five to six weeks old female DBF mice (Harlan, Indianapolis, Ind.) are used for all the studies. Animals are allowed to acclimate to local vivarium conditions for 2 days. […] The animals then are divided into groups with 4-5 mice per group. Different doses of test compounds prepared in 10% Ethanol and 90% sesame oil are administered to mice orally via gavage for 6 days. 1α-25(OH)2D3 0.5 μg/kg/d was also given to one group of mice as the positive control. […] Raw data of group differences is assessed by analysis of variance (ANOVA) using Fisher's protected least significant difference (PLSD) where the significance level was P<0.05.

VDR = biological target: T1, VDR (Homo sapiens, UniProt P11473); assay: Caco-2 cell co-transfection assay (VDR CTF); format: cell-based; conditions: Caco-2 cells, pGal4-VDR-LBD co-transfection, luciferase reporter
T1 construct: the receptor expression vector pGal4-VDR-LBD (10 ng); expressed in transfected cells; host or cells: Caco-2 cells
T1 sequence (P11473 127-423 limits assumed): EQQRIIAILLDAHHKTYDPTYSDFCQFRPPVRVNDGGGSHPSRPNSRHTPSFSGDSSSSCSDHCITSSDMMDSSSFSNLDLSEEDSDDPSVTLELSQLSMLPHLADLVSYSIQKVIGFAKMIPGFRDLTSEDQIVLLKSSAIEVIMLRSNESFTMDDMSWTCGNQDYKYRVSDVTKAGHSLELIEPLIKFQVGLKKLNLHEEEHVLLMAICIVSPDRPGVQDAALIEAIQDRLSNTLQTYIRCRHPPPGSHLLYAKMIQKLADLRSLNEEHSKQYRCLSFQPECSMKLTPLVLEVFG
Description: 2. The Caco-2 Cell Co-Transfection Assay:
The Caco-2 cell assay is an indicator for the undesirable condition of hypercalcemia. This co-transfection assay is a surrogate assay for in vivo calcemic activity of VDR ligands. […] Preferred assay results are greater than 1000 nM.
(2) Materials and Method for The Caco-2 Cell Assay:
Caco-2 cells, grown in phenol red free, DMEM (Invitrogen, Carlsbad, Calif.) containing 10% charcoal-stripped FCS (Hyclone, Logan, Utah), were transfected with Fugene 6 reagent (Roche Diagnostics, Indianapolis, Ind.). Cells (5000/well) were plated 18 h before transfection in a 96 well plate. The Cells were transfected with Gal4-responsive reporter pFRLuc (150 ng, Stratagene, La Jolla Calif.) and the receptor expression vector pGal4-VDR-LBD (10 ng), along with Fugene 6 reagent (0.2 μl/well). The DNA-Fugene complex was formed by incubating the mixture for 30 min at room temperature. The cells were transfected in triplicate for 5 h, and treated with various concentrations of VDR ligands (form 0.01 nM to 10,000 nM concentration range) 18 h post-transfection. The luciferase activity was quantified using Steady-Glo reagent kit (Promega, Madison, Wis.) as per manufacturer's specifications.

Row | Structure (SMILES) | EC50 (rat osteocalcin promoter; Rattus norvegicus, 48 h) [µM] | Mouse Hypercal [1] [µg/kg/day] | EC50 (VDR) [nM] | EC50 (rat osteocalcin promoter) [µM]
1 | CCC(CC)(c1ccc(OS(C)(=O)=O)cc1)c1ccc(OCC(=O)C(C)(C)C)c(C)c1 [Ex. 38, 3′-[4-(2-oxo-3,3-dimethylbutoxy)-3-methylphenyl]-3′-[4-methylsulfonyloxy-phenyl]pentane] | 0.00209 | <300 | – | –
2 | CCC(CC)(c1ccc(OCC(O)C(C)(C)C)c(C)c1)c1ccc(OS(=O)(=O)CC)c(C)c1 (centres unmarked) [Ex. 9, 3′-[4-(2-hydroxy-3,3-dimethylbutoxy)-3-methylphenyl]-3′-[4-(ethanesulfonyloxy)-3-methylphenyl]pentane] | – | – | 13 | –
3 | CCC(CC)(c1ccc(NS(C)(=O)=O)c(C)c1)c1ccc(OCC(O)C(C)(C)C)c(C)c1 (centres unmarked) [Ex. 12, 3′-[4-(2-Hydroxy-3,3-dimethylbutoxy)-3-methylphenyl]-3′-[4-(methanesulfonylamino)-3-methylphenyl]pentane] | 0.00233 | – | 112 | –
4 | CCC(CC)(c1ccc(OCC(=O)C(C)(C)C)c(C)c1)c1ccc(OS(C)(=O)=O)c(C)c1 [Ex. 4, 3′-[4-(2-oxo-3,3-dimethylbutoxy)-3-methylphenyl]-3′-[4-(methanesulfonyloxy)-3-methylphenyl]pentane] | 0.00091 | – | 164 | –
5 | CCC(CC)(c1ccc(OCC(O)CO)c(C)c1)c1ccc(OCC(O)C(C)(C)C)c(C)c1 (centres unmarked) [BB, 3-(4-{1-Ethyl-1-[4-(2-hydroxy-3,3-dimethyl-butoxy)-3-methyl-phenyl]-propyl}-2-methyl-phenoxy)-propane-1,2-diol, reference compound] | 0.011 | 20 | – | –
6 | CCC(CC)(c1ccc(OCC(O)C(C)(C)C)c(C)c1)c1ccc(N(C)S(C)(=O)=O)c(C)c1 (single isomer, unassigned) [Ex. 20, N-(4-{1-ethyl-1-[4-(2-hydroxy-3,3-dimethyl-butoxy)-3-methyl-phenyl]-propyl}-2-methyl-phenyl)-N-methyl-methanesulfonamide] | – | 500 | – | 0.0281
7 | CCC(CC)(c1ccc(OCC(=O)C(C)(C)C)c(C)c1)c1ccc(N(S(=O)(=O)CC(F)(F)F)S(=O)(=O)CC(F)(F)F)c(C)c1 [Ex. 28, N-(4-{1-[4-(3,3-Dimethyl-2-oxo-butoxy)-3-methyl-phenyl]-1-ethyl-propyl}-2-methyl-phenyl)-N,N-bis-2,2,2-trifluoro-ethanesulfonamide] | 0.0179 | 1000 | – | –
8 | CCc1cc(C(CC)(CC)c2ccc(OS(C)(=O)=O)cc2)ccc1OCC(=O)C(C)(C)C [Ex. 39, 3′-[4-(2-oxo-3,3-dimethylbutoxy)-3-ethylphenyl]-3′-[4-methylsulfonyloxy-phenyl]pentane] | 0.00179 | <100 | 18 | –
9 | CCC(CC)(c1ccc(OCC(O)C(C)(C)C)c(C)c1)c1ccc(OS(=O)(=O)C(F)(F)F)c(C)c1 (centres unmarked) [Ex. 6, 3′-[4-(2-hydroxy-3,3-dimethylbutoxy)-3-methylphenyl]-3′-[4-(trifluoromethanesulfonyloxy)-3-methylphenyl]pentane] | 0.0113 | 300 | 1140 | –
10 | CCC(CC)(c1ccc(NS(=O)(=O)CCS(=O)(=O)CC)c(C)c1)c1ccc(OCC(=O)C(C)(C)C)c(C)c1 [Ex. 32, N-(4-{1-[4-(3,3-Dimethyl-2-oxo-butoxy)-3-methyl-phenyl]-1-ethyl-propyl}-2-methyl-phenyl)-2-ethanesulfonyl-ethanesulfonamide] | 0.24 | – | – | –
11 | CCC(CC)(c1ccc(OCC(=O)C(C)(C)C)c(C)c1)c1ccc(N(C)S(=O)(=O)CC)c(C)c1 [Ex. 24, N-(4-{1-[4-(3,3-Dimethyl-2-oxo-butoxy)-3-methyl-phenyl]-1-ethyl-propyl}-2-methyl-phenyl)-N-methyl-ethanesulfonamide] | 0.0447 | <1000 | – | –
12 | CCC(CC)(c1ccc(OCC(O)C(C)(C)C)c(C)c1)c1ccc(N(C)S(C)(=O)=O)c(C)c1 (centres unmarked) [Ex. 19, N-(4-{1-Ethyl-1-[4-(2-hydroxy-3,3-dimethyl-butoxy)-3-methyl-phenyl]-propyl}-2-methyl-phenyl)-N-methyl-methanesulfonamide] | 0.0168 | – | – | –
13 | CCC(CC)(c1ccc(OCC(=O)C(C)(C)C)c(C)c1)c1ccc(OS(=O)(=O)CC)c(C)c1 [Ex. 8, 3′-[4-(2-oxo-3,3-dimethylbutoxy)-3-methylphenyl]-3′-[4-(ethanesulfonyloxy)-3-methylphenyl]pentane] | 0.00348 | – | 34.8 | –
14 | CCC(CC)(c1ccc(OCC(O)C(C)(C)C)cc1)c1ccc(OS(C)(=O)=O)c(C)c1 (centres unmarked) [Ex. 37, 3′-[4-(2-hydroxy-3,3-dimethylbutoxy)-phenyl]-3′-[4-methylsulfonyloxy-3-methylphenyl]pentane] | 0.0672 | – | 308 | –
15 | CCC(CC)(c1ccc(NS(=O)(=O)CCSC(C)C)c(C)c1)c1ccc(OCC(=O)C(C)(C)C)c(C)c1 [Ex. 33, N-(4-{1-[4-(3,3-Dimethyl-2-oxo-butoxy)-3-methyl-phenyl]-1-ethyl-propyl}-2-methyl-phenyl)-2-isopropylsulfanyl-ethanesulfonamide] | 0.0494 | – | – | –
16 | CCC(CC)(c1ccc(OCC(=O)C(C)(C)C)cc1)c1cc(C)c(OS(C)(=O)=O)c(C)c1 [Ex. 41, 3′-[4-(2-oxo-3,3-dimethylbutoxy)-phenyl]-3′-[3,5-dimethyl-4-methylsulfonyloxy-phenyl]pentane] | 0.111 | – | 614 | –
17 | CCC(CC)(c1ccc(NS(=O)(=O)C(F)(F)F)c(C)c1)c1ccc(OCC(=O)C(C)(C)C)c(C)c1 [Ex. 27, N-(4-{1-[4-(3,3-Dimethyl-2-oxo-butoxy)-3-methyl-phenyl]-1-ethyl-propyl}-2-methyl-phenyl)-trifluoromethanesulfonamide] | 0.0106 | 500 | – | –
18 | CCC(CC)(c1ccc(OCC(=O)C(C)(C)C)c(C)c1)c1ccc(N(S(=O)(=O)CC)S(=O)(=O)CC)c(C)c1 [Ex. 22, N-(4-{1-[4-(3,3-dimethyl-2-oxo-butoxy)-3-methyl-phenyl]-1-ethyl-propyl}-2-methyl-phenyl)-N,N-bis-ethanesulfonamide] | 0.0298 | 500 | – | –
19 | CCC(CC)(c1ccc(OCC(=O)C(C)(C)C)c(C)c1)c1ccc(N(CCSC)S(C)(=O)=O)c(C)c1 [Ex. 30, N-(4-{1-[4-(3,3-Dimethyl-2-oxo-butoxy)-3-methyl-phenyl]-1-ethyl-propyl}-2-methyl-phenyl)-N-(2-methylsulfanyl-ethyl)-methanesulfonamide] | 0.104 | – | – | –
20 | CCC(CC)(c1ccc(NS(=O)(=O)CC(F)(F)F)c(C)c1)c1ccc(OCC(=O)C(C)(C)C)c(C)c1 [Ex. 29, N-(4-{1-[4-(3,3-Dimethyl-2-oxo-butoxy)-3-methyl-phenyl]-1-ethyl-propyl}-2-methyl-phenyl)-2,2,2-trifluoro-ethanesulfonamide] | 0.00458 | 100 | – | –
21 | CCSCCS(=O)(=O)Nc1ccc(C(CC)(CC)c2ccc(OCC(=O)C(C)(C)C)c(C)c2)cc1C [Ex. 31, N-(4-{1-[4-(3,3-Dimethyl-2-oxo-butoxy)-3-methyl-phenyl]-1-ethyl-propyl}-2-methyl-phenyl)-2-ethylsulfanyl-ethanesulfonamide] | 0.044 | – | – | –
22 | CCC(CC)(c1ccc(NS(=O)(=O)CCS(=O)(=O)C(C)C)c(C)c1)c1ccc(OCC(=O)C(C)(C)C)c(C)c1 [Ex. 34, N-(4-{1-[4-(3,3-Dimethyl-2-oxo-butoxy)-3-methyl-phenyl]-1-ethyl-propyl}-2-methyl-phenyl)-2-(propane-2-sulfonyl)-ethanesulfonamide] | 0.374 | – | – | –
23 | CCC(CC)(c1ccc(OCC(C)(O)C(C)(C)C)c(C)c1)c1ccc(OS(=O)(=O)CC)c(C)c1 (centres unmarked) [Ex. 10, 3′-[4-(2-hydroxy-2-methyl-3,3-dimethylbutoxy)-3-methylphenyl]-3′-[4-(ethanesulfonyloxy)-3-methylphenyl]pentane] | 0.0003 | – | 15 | –
